{"source": "BindingDB's records for doi:10.1021/jm00150a026", "about": "(1985)"}
{"target": "Dihydrofolate reductase (Escherichia coli, UniProt P0ABQ4)", "sequence (P0ABQ4 whole entry, looked up)": "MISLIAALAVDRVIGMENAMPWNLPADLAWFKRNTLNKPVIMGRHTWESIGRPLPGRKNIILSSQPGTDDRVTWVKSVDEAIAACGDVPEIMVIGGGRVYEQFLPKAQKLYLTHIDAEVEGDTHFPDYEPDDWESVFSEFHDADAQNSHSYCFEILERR", "assay": "Inhibition of Escherichia coli dihydrofolate reductase.", "units": {"Ki": "nM"}}
{"smiles": "CC1(C)N=C(N)N=C(N)N1c1cccc(COc2cccc(NC(N)=O)c2)c1", "note": "[{3-[3-(4,6-Diamino-2,2-dimethyl-2H-[1,3,5]triazin-1-yl)-benzyloxy]-phenyl}-urea]", "Ki": 1230}
{"smiles": "Cc1cccc(OCc2cccc(N3C(N)=NC(N)=NC3(C)C)c2)c1", "note": "[6,6-Dimethyl-1-(3-m-tolyloxymethyl-phenyl)-1,6-dihydro-[1,3,5]triazine-2,4-diamine]", "Ki": 537}
{"smiles": "CCCCCCCCCCCOc1cccc(N2C(N)=NC(N)=NC2(C)C)c1", "note": "[6,6-Dimethyl-1-(3-undecyloxy-phenyl)-1,6-dihydro-[1,3,5]triazine-2,4-diamine]", "Ki": 646}
{"smiles": "CCc1cccc(OCc2cccc(N3C(N)=NC(N)=NC3(C)C)c2)c1", "note": "[1-[3-(3-Ethyl-phenoxymethyl)-phenyl]-6,6-dimethyl-1,6-dihydro-[1,3,5]triazine-2,4-diamine]", "Ki": 1120}
{"smiles": "CC1(C)N=C(N)N=C(N)N1c1cccc(COc2cccc(NC(N)=S)c2)c1", "Ki": 676}
{"smiles": "CC(C)(C)c1cccc(OCc2cccc(N3C(N)=NC(N)=NC3(C)C)c2)c1", "Ki": 871}
{"smiles": "CC1(C)N=C(N)N=C(N)N1c1cccc(COc2cccc(CO)c2)c1", "note": "[{3-[3-(4,6-Diamino-2,2-dimethyl-2H-[1,3,5]triazin-1-yl)-benzyloxy]-phenyl}-methanol]", "Ki": 646}
{"smiles": "CC1(C)N=C(N)N=C(N)N1c1cccc(OCc2ccc(Cl)c(Cl)c2)c1", "Ki": 708}
{"smiles": "CCCCCCCCCCCCOc1cccc(N2C(N)=NC(N)=NC2(C)C)c1", "Ki": 1320}
{"smiles": "CC1(C)N=C(N)N=C(N)N1c1cccc(COc2cccc(Cl)c2)c1", "note": "[1-[3-(3-Chloro-phenoxymethyl)-phenyl]-6,6-dimethyl-1,6-dihydro-[1,3,5]triazine-2,4-diamine]", "Ki": 977}
{"smiles": "COc1cccc(OCc2cccc(N3C(N)=NC(N)=NC3(C)C)c2)c1", "note": "[1-[3-(3-Methoxy-phenoxymethyl)-phenyl]-6,6-dimethyl-1,6-dihydro-[1,3,5]triazine-2,4-diamine]", "Ki": 955}
{"smiles": "CC1(C)N=C(N)N=C(N)N1c1cccc(COc2cccc(C#N)c2)c1", "note": "[3-[3-(4,6-Diamino-2,2-dimethyl-2H-[1,3,5]triazin-1-yl)-benzyloxy]-benzonitrile]", "Ki": 891}
{"smiles": "CCCCCCCCCCCCCCOc1cccc(N2C(N)=NC(N)=NC2(C)C)c1", "note": "[6,6-Dimethyl-1-(3-tetradecyloxy-phenyl)-1,6-dihydro-[1,3,5]triazine-2,4-diamine]", "Ki": 1410}
